Laboratory results: PMC12037037 (Proceedings of the National Academy of Sciences of the …, 2025)

Assays:
[1] = target: 5-HT2A receptor membrane preparations obtained from PSYLI2 cells (Homo sapiens, UniProt P28223); assay: Ligand binding kinetics with [3H]-LSD on PSYLI2 membrane preparations; conditions: kinetics of competition binding vs [3H]-LSD
Description: Ligand binding kinetics at the 5-HT2AR.
Data represent the mean ± SEM of 2–3 biological replicates.
Data represent the mean ± SEM of 2–4 biological replicates.
Binding buffer consisted of 50 mM Tris HCl, 10 mM MgCl2, 0.1 mM EDTA disodium dihydrate in autoclaved
deionized water. The solution was adjusted to pH 7.4 with 10 M NaOH(aq) and stored at 4 °C. This solution was used in
membrane preparation generation as well as competition and kinetics assays.
free, see 15) were grown in 15-cm plates with Dulbecco’s Modified Eagle Media (DMEM) containing 10% fetal bovine serum and 1% penicillin/streptomycin. When the cells were >90% confluent, the media was removed, and the cells were washed
with Dulbecco’s Phosphate Buffered Saline (DPBS) (15 mL). Next, DMEM (15 mL) lacking fetal bovine serum and
penicillin/streptomycin was added, and the cells were serum-starved for 4–12 hours. Roughly 10 mL of the DMEM was
removed, leaving ~5 mL of media in the plates before placing them on ice. Once on ice, the plates were scraped and the
contents were transferred to a pre-chilled 50 mL Falcon tube and then centrifuged (2,000 g, 10 min, 4 °C). The supernatant […]
of 0.25 mL to use for quantification of protein concentration via a Bradford assay with a Coomassie protein assay reagent. […]
For association binding experiments, total and nonspecific binding was determined by adding binding buffer (2.5X solution, […]

C57BL/6J mice = assay: Sucrose preference test (SPT) after chronic CORT; type: in vivo; conditions: after 20 d CORT 20 mg/kg IP; baseline 0.7980 ± 0.03533
Description: remained housed in groups of three for the remainder of the study. All rats were acclimated to the colony room for up to one week prior to dosing. During the period of acclimation, rats were examined and handled daily, and weighed to assure adequate health and suitability. The room temperature was maintained between 20 °C and 23 °C with a relative humidity of 30%–70%. Lab Rodent Diet 5001 (W.F. Fisher, Cat # 11015) and water were provided ad libitum. Animals were randomly assigned across treatment groups. All testing was performed during the light phase of the light/dark cycle. Behavioral testing was conducted according to established protocols approved by the IACUC committee and PGI Standard Operation Procedures (SOP). […] All animals were carefully monitored to ensure their safety in the swim test and any animal unable to maintain a posture with its nose above water was immediately removed from the water and not used further in the study. […] This test lasted for 5 min and was video recorded. A blinded experimenter manually scored the videos for swimming, climbing, and immobility behavior. Scoring of the forced swim test was performed by trained technicians using a time sampling technique in which the animal in the video recorded test was viewed every 5 seconds and the behavior observed was noted (e.g., immobile, swimming, or climbing). […]

[2] = system: Thy1-EGFP mice, layer 2/3 of the mPFC; assay: In vivo spinogenesis after chronic corticosterone administration; conditions: chronic CORT (20 mg/kg IP daily, 20 d) + VEH; GH VEH 12.17 ± 0.5278; mean ± SEM
Description: In Vivo Spinogenesis after chronic corticosterone administration. Male and female Thy1-EGFP mice were given 1 week to acclimate to the new vivarium, then transferred to new cages (individually housed). Once individually housed, the mice were administered corticosterone (20 mg/kg; IP) in DMSO (2 mL/kg) or gently handled daily for 20 days. On day 21, mice were treated with VEH (saline) or (+)-JRT (1 mg/kg; IP). After 24 h, mice were anesthetized with isoflurane and transcardially perfused with paraformaldehyde (PFA, 4% in PBS, 7.4 pH). After extraction of the brains, samples were fixed in 4% PFA at 4° C overnight. The brains were cryo-protected by immersion in a 15% sucrose solution (15% sucrose in PBS w/v) overnight. Next, samples were placed in 30% sucrose solution (30% sucrose in PBS w/v) for at least 1 day. Samples were then embedded in optimal cutting temperature compound (OCT), sliced into 100 µm coronal sections using a cryostat, and mounted on slides which were left in the dark overnight to dry. Coverslips were mounted onto microscope slides using ProLong Gold. Slides were imaged on a Nikon HCA Spinning Disc confocal microscope equipped with a 100x/NA 1.45 oil objective. Images of dendrites and dendritic spines within layer 2/3 of the mPFC were captured and manually counted by a trained experimenter blinded to treatment conditions.

[3] = target: alpha 1 (non-selective) (antagonist radioligand); design: method as in ref Receptor interaction profiles of novel N-2-methoxybenzyl (NBOMe) derivatives of 2,5-dimethoxy-substituted phenethylamines (2C drugs); conditions: read-out: Ki of LSD; radioligand prazosin; Human cloned; ref Receptor interaction profiles of novel N-2-methoxybenzyl (NBOMe) derivatives of 2,5-dimethoxy-substituted phenethylamines (2C drugs); cited from earlier work
[4] = target: 5-HT1B (h) (antagonist radioligand); design: method as in ref Pharmacological Differentiation and Characterization of 5-HT1A, 5-HT1B, and 5-HT1C Binding Sites in Rat Frontal Cortex; conditions: read-out: Ki of LSD; radioligand 5-HT; Rat cortex; ref Pharmacological Differentiation and Characterization of 5-HT1A, 5-HT1B, and 5-HT1C Binding Sites in Rat Frontal Cortex; cited from earlier work
[5] = target: D2S (h) (antagonist radioligand); design: method as in ref Mefloquine and psychotomimetics share neurotransmitter receptor and transporter interactions in vitro; conditions: read-out: Ki of LSD; radioligand [3H]YM-09151-2; Human cloned; ref Mefloquine and psychotomimetics share neurotransmitter receptor and transporter interactions in vitro; cited from earlier work
[6] = target: D1 (h) (antagonist radioligand); design: method as in ref Mefloquine and psychotomimetics share neurotransmitter receptor and transporter interactions in vitro; conditions: read-out: Ki of LSD; radioligand SCH 23390; Human cloned; ref Mefloquine and psychotomimetics share neurotransmitter receptor and transporter interactions in vitro; cited from earlier work
[7] = system: E18 rat embryonic cortical neurons (DIV18-19); assay: Spinogenesis assay using cultured rat cortical neurons; type: cell-based; conditions: compound 1 μM
[8] = target: alpha 2 (non-selective) (antagonist radioligand); design: method as in ref Receptor interaction profiles of novel N-2-methoxybenzyl (NBOMe) derivatives of 2,5-dimethoxy-substituted phenethylamines (2C drugs); conditions: read-out: Ki of LSD; radioligand Rauwolscine; Human cloned; ref Receptor interaction profiles of novel N-2-methoxybenzyl (NBOMe) derivatives of 2,5-dimethoxy-substituted phenethylamines (2C drugs); cited from earlier work
[9] = target: 5-HT5a (h) (agonist radioligand); conditions: read-out: Ki of LSD, Rat cloned, ref Lysergamides of isomeric 2,4-dimethylazetidines map the binding orientation of the diethylamide moiety in the potent hallucinogenic agent N,N-diethyllysergamide (LSD); cited from earlier work
[10] = target: 5-HT2B (h) (agonist radioligand); conditions: read-out: Ki of LSD; radioligand 5-HT; Human cloned; ref Pharmacological characterisation of the agonist radioligand binding site of 5-HT(2A), 5-HT(2B) and 5-HT(2C) receptors; cited from earlier work
[11] = target: beta 1 (h) (agonist radioligand); conditions: read-out: Ki of LSD; radioligand 125I-pindolol; Rat cloned; ref Lysergamides of isomeric 2,4-dimethylazetidines map the binding orientation of the diethylamide moiety in the potent hallucinogenic agent N,N-diethyllysergamide (LSD); cited from earlier work
[12] = target: 5-HT7 (h) (agonist radioligand); design: method as in Molecular biology of 5-HT receptors; conditions: read-out: Ki of LSD; radioligand 5-HT; Rat cloned; ref Molecular biology of 5-HT receptors; cited from earlier work

Chain of 5-HT2A receptor membrane preparations obtained from PSYLI2 cells (P28223 1-263 limits assumed): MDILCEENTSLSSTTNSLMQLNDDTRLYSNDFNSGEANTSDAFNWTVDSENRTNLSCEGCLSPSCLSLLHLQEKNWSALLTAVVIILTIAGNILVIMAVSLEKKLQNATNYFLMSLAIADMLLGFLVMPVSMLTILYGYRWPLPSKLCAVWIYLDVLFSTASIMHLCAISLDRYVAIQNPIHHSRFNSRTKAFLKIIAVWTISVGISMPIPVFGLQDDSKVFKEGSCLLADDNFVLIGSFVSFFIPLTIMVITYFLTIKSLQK
Chain of 5-HT2A receptor membrane preparations obtained from PSYLI2 cells (P28223 316-471 limits assumed): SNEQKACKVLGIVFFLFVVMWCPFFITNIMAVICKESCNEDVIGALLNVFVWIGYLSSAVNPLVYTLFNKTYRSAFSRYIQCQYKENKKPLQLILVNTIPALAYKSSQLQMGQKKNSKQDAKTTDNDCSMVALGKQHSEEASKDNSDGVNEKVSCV

CCN(CC)CCc1c[nH]c2cc(F)ccc12 [6-F-DET, 6-fluoro-N,N-diethyltryptamine, reference compound]
Dissociation rate from the 5-HT2A receptor, fold faster than LSD [1]: ~100 fold

C[C@]12C[C@H](O)[C@H]3[C@@H](CCC4=CC(=O)CC[C@@]43C)[C@@H]1CC[C@@H]2C(=O)CO [CORT, corticosterone, reference compound]
Sucrose preference post-CORT (Figure 6D) (C57BL/6J mice): 0.5563 ± 0.08424
Dendritic spine density, layer 2/3 mPFC (Table S1, matches Fig. 4N) [2]: 8.570 ± 0.4350

CCN(CC)C(=O)[C@@H]1C=C2c3cccc4[nH]cc(c34)C[C@H]2N(C)C1 [LSD, lysergic acid diethylamide]
Ki [3]: 670 nM
Ki [4]: 170 nM
Ki [5]: 38 nM
Ki [6]: 273 nM
Effect of ketanserin (10 μM) pretreatment on compound-induced dendritic spine density [7]: blocks
Ki [8]: 12 nM
Ki [9]: 9 nM
Ki [10]: 0.977 nM
Ki [11]: 140 nM
Ki [12]: 200 nM
